Data taken from PubChem BioAssay (NCI).
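Five concentrations, 48 hours, 96-well plates. Here, GI50 denotes the concentration required for 50% inhibition of growth. TGI is the concentration that stops growth completely.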

Assays:
Assay in all cases: inhibition of tumour cell growth, NCI panel, 48 h
786-0 renal = system: 786-0 renal
A498 renal = system: A498 renal
A549 NSCLC = system: A549 NSCLC
ACHN renal = system: ACHN renal
BT-549 breast = system: BT-549 breast
CAKI-1 renal = system: CAKI-1 renal
CCRF-CEM leukemia = system: CCRF-CEM leukemia
COLO 205 colon = system: COLO 205 colon
DU-145 prostate = system: DU-145 prostate
EKVX NSCLC = system: EKVX NSCLC
HCC-2998 colon = system: HCC-2998 colon
HCT-116 colon = system: HCT-116 colon
HCT-15 colon = system: HCT-15 colon
HL-60(TB) leukemia = system: HL-60(TB) leukemia
HOP-62 NSCLC = system: HOP-62 NSCLC
HOP-92 NSCLC = system: HOP-92 NSCLC
HS 578T breast = system: HS 578T breast
HT29 colon = system: HT29 colon
IGROV1 ovarian = system: IGROV1 ovarian
K-562 leukemia = system: K-562 leukemia
KM12 colon = system: KM12 colon
LOX IMVI melanoma = system: LOX IMVI melanoma
M14 melanoma = system: M14 melanoma
MALME-3M melanoma = system: MALME-3M melanoma
MCF7 breast = system: MCF7 breast
MDA-MB-231 breast = system: MDA-MB-231 breast
MDA-MB-435 = system: MDA-MB-435
MOLT-4 leukemia = system: MOLT-4 leukemia
NCI-H226 lung = system: NCI-H226 lung
NCI-H23 lung = system: NCI-H23 lung
NCI-H460 lung = system: NCI-H460 lung
NCI-H522 lung = system: NCI-H522 lung
NCI/ADR-RES ovarian = system: NCI/ADR-RES ovarian
OVCAR-3 ovarian = system: OVCAR-3 ovarian
OVCAR-4 ovarian = system: OVCAR-4 ovarian
OVCAR-5 ovarian = system: OVCAR-5 ovarian
OVCAR-8 ovarian = system: OVCAR-8 ovarian
PC-3 prostate = system: PC-3 prostate
RPMI-8226 leukemia = system: RPMI-8226 leukemia
RXF 393 renal = system: RXF 393 renal
SF-268 CNS = system: SF-268 CNS
SF-295 CNS = system: SF-295 CNS
SF-539 CNS = system: SF-539 CNS
SK-MEL-2 melanoma = system: SK-MEL-2 melanoma
SK-MEL-28 melanoma = system: SK-MEL-28 melanoma
SK-MEL-5 melanoma = system: SK-MEL-5 melanoma
SK-OV-3 ovarian = system: SK-OV-3 ovarian
SN12C renal = system: SN12C renal
SNB-19 CNS = system: SNB-19 CNS
SNB-75 CNS = system: SNB-75 CNS
SR leukemia = system: SR leukemia
SW-620 colon = system: SW-620 colon
T-47D breast = system: T-47D breast
TK-10 renal = system: TK-10 renal
U251 CNS = system: U251 CNS
UACC-257 melanoma = system: UACC-257 melanoma
UACC-62 melanoma = system: UACC-62 melanoma
UO-31 renal = system: UO-31 renal

## N#Cc1c(-c2ccccc2)nc2c(c(-c3ccccc3)nn2-c2ccccc2)c1-c1ccc(O)cc1
786-0 renal
  GI50: 2.16 µM
  TGI: 5.35 µM
A498 renal
  GI50: 1.66 µM
  TGI: 3.07 µM
A549 NSCLC
  GI50: 2.57 µM
  TGI: 6.87 µM
ACHN renal
  GI50: 2.24 µM
  TGI: 5.89 µM
BT-549 breast
  GI50: 2 µM
  TGI: 4.45 µM
CAKI-1 renal
  GI50: 2.48 µM
  TGI: 6.7 µM
CCRF-CEM leukemia
  GI50: 3.13 µM
  TGI: 13.4 µM
COLO 205 colon
  GI50: 2.61 µM
  TGI: 6.31 µM
DU-145 prostate
  GI50: 2.62 µM
  TGI: 8.53 µM
EKVX NSCLC
  GI50: 1.92 µM
  TGI: 5.1 µM
HCC-2998 colon
  GI50: 1.84 µM
  TGI: 3.47 µM
HCT-116 colon
  GI50: 2.63 µM
  TGI: 7.32 µM
HCT-15 colon
  GI50: 1.62 µM
  TGI: 3.79 µM
HL-60(TB) leukemia
  GI50: 3.52 µM
  TGI: 23.7 µM
HOP-62 NSCLC
  GI50: 2.12 µM
  TGI: 4.49 µM
HOP-92 NSCLC
  GI50: 2.06 µM
  TGI: 4.21 µM
HS 578T breast
  GI50: 1.41 µM
  TGI: 4.46 µM
HT29 colon
  GI50: 2.51 µM
  TGI: 6.44 µM
IGROV1 ovarian
  GI50: 1.8 µM
  TGI: 3.62 µM
K-562 leukemia
  GI50: 2.68 µM
  TGI: > 100 µM
KM12 colon
  GI50: 2.02 µM
  TGI: 4.76 µM
LOX IMVI melanoma
  GI50: 1.68 µM
  TGI: 3.05 µM
M14 melanoma
  GI50: 2.27 µM
  TGI: 5.48 µM
MALME-3M melanoma
  GI50: 1.62 µM
  TGI: 3.83 µM
MCF7 breast
  GI50: 1.86 µM
  TGI: 4.76 µM
MDA-MB-231 breast
  GI50: 1.7 µM
  TGI: 3.31 µM
MDA-MB-435
  GI50: 1.86 µM
  TGI: 3.71 µM
MOLT-4 leukemia
  GI50: 2.48 µM
  TGI: 7.86 µM
NCI-H226 lung
  GI50: 1.97 µM
  TGI: 4.51 µM
NCI-H23 lung
  GI50: 1.78 µM
  TGI: 3.84 µM
NCI-H460 lung
  GI50: 1.73 µM
  TGI: 3.26 µM
NCI-H522 lung
  GI50: 2.32 µM
  TGI: 6.03 µM
NCI/ADR-RES ovarian
  GI50: 2.27 µM
  TGI: 5.62 µM
OVCAR-3 ovarian
  GI50: 2 µM
  TGI: 4.45 µM
OVCAR-4 ovarian
  GI50: 1.95 µM
  TGI: 4.66 µM
OVCAR-5 ovarian
  GI50: 1.75 µM
  TGI: 3.41 µM
OVCAR-8 ovarian
  GI50: 3.14 µM
  TGI: 11.7 µM
PC-3 prostate
  GI50: 1.82 µM
  TGI: 3.78 µM
RPMI-8226 leukemia
  GI50: 2.42 µM
  TGI: 17.9 µM
RXF 393 renal
  GI50: 1.03 µM
  TGI: 2.35 µM
SF-268 CNS
  GI50: 2.83 µM
  TGI: 9.14 µM
SF-295 CNS
  GI50: 1.88 µM
  TGI: 4.29 µM
SF-539 CNS
  GI50: 1.25 µM
  TGI: 2.76 µM
SK-MEL-2 melanoma
  GI50: 2.39 µM
  TGI: 5.65 µM
SK-MEL-28 melanoma
  GI50: 1.58 µM
  TGI: 3.05 µM
SK-MEL-5 melanoma
  GI50: 1.76 µM
  TGI: 3.19 µM
SK-OV-3 ovarian
  GI50: 2.87 µM
  TGI: 8.48 µM
SN12C renal
  GI50: 1.64 µM
  TGI: 3.04 µM
SNB-19 CNS
  GI50: 1.9 µM
  TGI: 3.8 µM
SNB-75 CNS
  GI50: 2.03 µM
  TGI: 7.28 µM
SR leukemia
  GI50: 2.95 µM
  TGI: > 100 µM
SW-620 colon
  GI50: 1.86 µM
  TGI: 3.53 µM
T-47D breast
  GI50: 3.05 µM
  TGI: 23.8 µM
TK-10 renal
  GI50: 2.89 µM
  TGI: 8.19 µM
U251 CNS
  GI50: 1.63 µM
  TGI: 3.97 µM
UACC-257 melanoma
  GI50: 3.13 µM
  TGI: 12.1 µM
UACC-62 melanoma
  GI50: 1.7 µM
  TGI: 3.18 µM
UO-31 renal
  GI50: 2.02 µM
  TGI: 4.16 µM

## CCCCCCNc1nc(NCCCCCC)c2[nH]c(NCCCCCC)nc2n1
786-0 renal
  GI50: 14.5 µM
  TGI: 27.6 µM
A498 renal
  GI50: 1.2 µM
  TGI: 10.5 µM
A549 NSCLC
  GI50: 1.58 µM
  TGI: 14.8 µM
ACHN renal
  GI50: 15 µM
  TGI: 37.8 µM
BT-549 breast
  GI50: 7.47 µM
  TGI: 25.1 µM
CAKI-1 renal
  GI50: 16.2 µM
  TGI: 50.9 µM
CCRF-CEM leukemia
  GI50: 4.95 µM
  TGI: 35.6 µM
COLO 205 colon
  GI50: 1.32 µM
  TGI: 2.76 µM
DU-145 prostate
  GI50: 12.8 µM
  TGI: 25.4 µM
EKVX NSCLC
  GI50: 5.51 µM
  TGI: 30 µM
HCC-2998 colon
  GI50: 12.5 µM
  TGI: 26.8 µM
HCT-116 colon
  GI50: 1.34 µM
  TGI: 3.46 µM
HCT-15 colon
  GI50: 10.7 µM
  TGI: > 51.7 µM
HL-60(TB) leukemia
  GI50: 1.58 µM
  TGI: 4.22 µM
HOP-62 NSCLC
  GI50: 18.5 µM
  TGI: 33 µM
HOP-92 NSCLC
  GI50: 5.43 µM
  TGI: 16.9 µM
HS 578T breast
  GI50: 1.97 µM
  TGI: 9.84 µM
HT29 colon
  GI50: 5.59 µM
  TGI: 18.8 µM
IGROV1 ovarian
  GI50: 19 µM
  TGI: > 53.2 µM
K-562 leukemia
  GI50: 7.02 µM
  TGI: 25.1 µM
KM12 colon
  GI50: 8.01 µM
  TGI: 21.1 µM
LOX IMVI melanoma
  GI50: 2.66 µM
  TGI: 7.53 µM
M14 melanoma
  GI50: 14.1 µM
  TGI: 27.9 µM
MALME-3M melanoma
  GI50: 4.5 µM
  TGI: 16.1 µM
MCF7 breast
  GI50: 3.22 µM
  TGI: 15.8 µM
MDA-MB-231 breast
  GI50: 5.09 µM
  TGI: 19.3 µM
MDA-MB-435
  GI50: 8.75 µM
  TGI: 24.9 µM
MOLT-4 leukemia
  GI50: 3.12 µM
  TGI: 35.4 µM
NCI-H226 lung
  GI50: 15.4 µM
  TGI: 34.3 µM
NCI-H23 lung
  GI50: 8.77 µM
  TGI: 23.3 µM
NCI-H460 lung
  GI50: 5.37 µM
  TGI: 19.5 µM
NCI-H522 lung
  GI50: 2.14 µM
  TGI: 7.68 µM
NCI/ADR-RES ovarian
  GI50: 64.5 µM
  TGI: > 100 µM
OVCAR-3 ovarian
  GI50: 2.1 µM
  TGI: 9.44 µM
OVCAR-4 ovarian
  GI50: 6.97 µM
  TGI: 21.2 µM
OVCAR-5 ovarian
  GI50: 9.31 µM
  TGI: 24.7 µM
OVCAR-8 ovarian
  GI50: 9.96 µM
  TGI: 30.8 µM
PC-3 prostate
  GI50: 9.14 µM
  TGI: 28.9 µM
RPMI-8226 leukemia
  GI50: 1.86 µM
  TGI: 10.3 µM
RXF 393 renal
  GI50: 4.23 µM
  TGI: 17.5 µM
SF-268 CNS
  GI50: 4.36 µM
  TGI: 15.5 µM
SF-295 CNS
  GI50: 12.8 µM
  TGI: 31.3 µM
SF-539 CNS
  GI50: 7.39 µM
  TGI: 21.1 µM
SK-MEL-2 melanoma
  GI50: 11.5 µM
  TGI: 28.7 µM
SK-MEL-28 melanoma
  GI50: 12.1 µM
  TGI: 24.6 µM
SK-MEL-5 melanoma
  GI50: 12.7 µM
  TGI: 25.2 µM
SK-OV-3 ovarian
  GI50: 24.8 µM
  TGI: > 74.1 µM
SN12C renal
  GI50: 3.75 µM
  TGI: 17.6 µM
SNB-19 CNS
  GI50: 15.5 µM
  TGI: 29.5 µM
SNB-75 CNS
  GI50: 4.31 µM
  TGI: 20.7 µM
SR leukemia
  GI50: 0.582 µM
  TGI: 3.43 µM
SW-620 colon
  GI50: 3.04 µM
  TGI: 12.3 µM
T-47D breast
  GI50: 2.42 µM
  TGI: 17.3 µM
TK-10 renal
  GI50: 21.3 µM
  TGI: 46.6 µM
U251 CNS
  GI50: 2.18 µM
  TGI: 8.98 µM
UACC-257 melanoma
  GI50: 17 µM
  TGI: 32.9 µM
UACC-62 melanoma
  GI50: 13.4 µM
  TGI: 28.6 µM
UO-31 renal
  GI50: 14 µM
  TGI: 35 µM
